The text below walks through data of article PMC12389355, “Physiologically Based Pharmacokinetic Modeling to Assess Perpetrator and Victim Cytochrome P450 2C Induction Risk” (Pharmaceutics, 2025).

For data set [1], the system named is CYP3A4. As to conditions: cited from earlier work; for fm CYP3A4: victim drug, References of Tables 3 and 4 ([27]-[44]).
In data set [2] the test system is CYP2C8. The arrangement: method as in References column of Tables 3 and 4 ([27]-[44]). As to conditions: victim drug; References of Tables 3 and 4 ([27]-[44]); cited from earlier work.
The conditions of data set [3]: victim drug after administration with rifampicin; References of Table 4 ([27]-[43]), DIDB; cited from earlier work.
The test system of data set [4] is CYP2C8. The experiment in a line: CYP2C8 mRNA induction in HTC model.
Data set [5] relates to CYP2C19. Details: method as in PMID 26658225. As to conditions: PHH spheroids, observed in two of the three donors; cited from earlier work.
Data set [6] has as its system CYP2C19. The experiment in a line: in vitro. As to conditions: both, human.
Data set [7] has as its system CYP2C19. As to the kind of experiment: CYP2C19 mRNA induction in HTC model.
The subject of data set [8] is CYP2B6. The arrangement: method as in PMID 29802934. As to conditions: PHH spheroids; cited from earlier work.
For data set [9], the system named is CYP2B6. As to the kind of experiment: in vitro. As to conditions: human.
Data set [10] concerns CYP2B6. The experiment in a line: CYP2B6 mRNA induction in HTC model.
In data set [11] the test system is CYP2C8. The arrangement: method as in PMID 29802934. As to conditions: PHH spheroids; cited from earlier work.
In data set [12] the test system is CYP2C8. The experiment in a line: in vitro. As to conditions: both, human.
For data set [13], the system named is CYP2B6. As to conditions: cited from earlier work.
Data set [14] deals with CYP2C9. As to conditions: cited from earlier work.
For data set [15], the system named is CYP1A2. As to conditions: cited from earlier work.
For data set [16], the system named is CYP2C19. As to conditions: cited from earlier work.

Turning to `CCc1ccc(CCOc2ccc(CC3SC(=O)NC3=O)cc2)nc1` (stereo not drawn) [Pioglitazone, pioglitazone], in [1], the “fm CYP3A4” value is 0.37. For the same compound, in [2], the “fm CYP2C8” value is 0.56. For the same compound, the “% AUC Reduction (Clinically Observed)” value in [3] is 56.3%.
Consider `CCOc1cc(CC(=O)N[C@@H](CC(C)C)c2ccccc2N2CCCCC2)ccc1C(=O)O` [Repaglinide, repaglinide], for which the “fm CYP3A4” value in data set [1] is reported as 0.74. In addition, the “fm CYP2C8” value in data set [2] is 0.26. Further, in data set [3], the “% AUC Reduction (Clinically Observed)” value is listed as 57.5%.
The EC50 is the concentration at which the effect is half-maximal. Low values mean higher potency in that assay, high ones lower potency in that assay. In the case of `CO[C@H]1/C=C/O[C@@]2(C)Oc3c(C)c(O)c4c(O)c(c(/C=N/N5CCN(C)CC5)c(O)c4c3C2=O)NC(=O)/C(C)=C\C=C\[C@H](C)[C@H](O)[C@@H](C)[C@@H](O)[C@@H](C)[C@H](OC(C)=O)[C@@H]1C` [Rifampicin, rifampicin], the EC50 in [4] (Donor 2) was found to be 260 nM; in data set [4] (Donor 3) it was 307 nM; in data set [7] (Donor 1) it was 1640 nM; in [7] (Donor 2), 803 nM; in data set [7] (Donor 3) it was 1470 nM; in [10] (Donor 2), 530 nM. In data set [10] (Donor 3), this compound gave an EC50 of 399 nM. Also, in data set [5], the CYP2C19 induction is recorded as 8 fold. The EC50 at 96 h in data set [6] is 803 to 1640 nM; in data set [9] (both) it was 399 to 530 nM; in data set [9], 415 nM; in data set [12] it was 260 to 504 nM. In [8], the “induction of CYP2B6 mRNA levels” value is 9 fold. Moreover, in data set [11], the “induction of CYP2C8 mRNA levels” value was 12 fold.
For the compound `CC(=O)C[C@@H](c1ccccc1)c1c(O)c2ccccc2oc1=O` [S-warfarin], in [1], the “fm via CYP3A4” value was 0.05. Also, in data set [13], the “fm via CYP2B6” value is on record as 0.12. In addition, the “fm via CYP2C9” value in data set [14] was 0.64.
With `CC(=O)CC(c1ccccc1)c1c(O)c2ccccc2oc1=O` (stereo not drawn) [Warfarin, warfarin], the “fm CYP2C9” value in [14] (victim drug, References of Tables 3 and 4 ([27]-[44])) is listed as 0.64.
For `COC(=O)[C@H](c1ccccc1Cl)N1CCc2sccc2C1` [clopidogrel], the “fm via CYP2B6” value in data set [13] was 0.06. Moreover, the “fm via CYP1A2” value in [15] was 0.02. For the same compound, the “fm via CYP2C19” value in data set [16] is 0.19.
